From US20250296959A1, “B7-H3 TARGETING PEPTIDES AND CONSTRUCTS THEREOF” (Mariana Oncology Inc., priority 2024, published 2025) come the findings set out here.

For orientation: Kd means the concentration at which binding is half-saturated.

Starred links: 1 amine or outer side, 2 acyl side, 3 side chain; linkers in the order of their positions; H or OH if unused. Positions of bridges follow the written chain, without caps; N, C: chain ends. Non-standard residues stand in square brackets, D forms with d. Residues, ends and D or L forms follow the SMILES beside them. Groups on a side chain read outwards from the residue. *: point of attachment. Ala(piperidin-4-yl) = O=C([C@H](CC1CCN([*:3])CC1)N[*:1])[*:2]; DOTA = O=C(O)CN1CCN(CC(=O)O)CCN(CC(=O)*)CCN(CC(=O)O)CC1; Trp(5-F) = N[C@@H](Cc1c[nH]c2ccc(F)cc12)C(=O)O; X15 = CC(=O)N1CCC(C[C@H](N[*:1])C(=O)[*:2])CC1; X1 = C[C@@H](c1ccccc1)[C@H](N[*:1])C(=O)[*:2]; Ala(4-THP) = N[C@@H](CC1CCOCC1)C(=O)O; Val(3-OH) = CC(C)(O)[C@H](N)C(=O)O; hPhe = N[C@@H](CCc1ccccc1)C(=O)O; 3Pal = N[C@@H](Cc1cccnc1)C(=O)O; 4Pal = N[C@@H](Cc1ccncc1)C(=O)O; Cha = N[C@@H](CC1CCCCC1)C(=O)O; Gly(cPr) = N[C@H](C(=O)O)C1CC1; NMeNle = CCCC[C@H](NC)C(=O)O; PEG4 = NCCOCCOCCOCCOCCC(=O)O; Tle = CC(C)(C)[C@H](N)C(=O)O; hLeu = CC(C)CC[C@H](N)C(=O)O; Nle = CCCC[C@H](N)C(=O)O; Abu = CC[C@H](N)C(=O)O; PEG1 = NCCOCCC(=O)O; Sar = CNCC(=O)O A value given as a limit tells only on which side of the number the result lay.

For the assay, the target named is T1, human 4lg B7-H3 (Homo sapiens, UniProt Q5ZPR3).
T1 sequence (Q5ZPR3 29-534): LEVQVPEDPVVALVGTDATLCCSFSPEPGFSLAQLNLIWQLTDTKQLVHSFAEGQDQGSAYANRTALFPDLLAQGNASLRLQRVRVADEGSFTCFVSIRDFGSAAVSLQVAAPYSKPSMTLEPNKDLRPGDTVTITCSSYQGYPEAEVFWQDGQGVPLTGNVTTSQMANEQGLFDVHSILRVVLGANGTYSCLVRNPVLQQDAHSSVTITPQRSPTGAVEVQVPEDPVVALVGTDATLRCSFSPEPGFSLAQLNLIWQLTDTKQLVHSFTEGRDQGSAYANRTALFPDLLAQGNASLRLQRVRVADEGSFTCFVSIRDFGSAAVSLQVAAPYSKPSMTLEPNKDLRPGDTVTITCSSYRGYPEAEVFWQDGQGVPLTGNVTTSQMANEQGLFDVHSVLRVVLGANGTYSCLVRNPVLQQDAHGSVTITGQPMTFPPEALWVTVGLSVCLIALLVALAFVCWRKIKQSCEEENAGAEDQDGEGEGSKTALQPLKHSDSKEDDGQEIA
Put plainly: Affinity determination by surface plasmon resonance (SPR) to 4Ig B7-H3. The settings on record: 4Ig B7-H3. For orientation: In SPR one partner is held on a chip, and binding of the other changes the refractive index at the surface.

Where [1] appears, read: SPR KD—25° C., 25° C. flow cell temperature.
Setting [2] is: SPR KD—37° C., 37° C. flow cell temperature.

`CC(=O)N[C@@H](CCC(C)C)C(=O)N[C@@H](Cc1ccc(O)cc1)C(=O)N[C@H]1CSSC[C@@H](C(=O)N[C@@H](Cc2c[nH]c3ccccc23)C(=O)N[C@@H](Cc2ccccc2)C(=O)N[C@H](C(=O)N[C@H](CCCCNC(=O)CN2CCN(CC(=O)O)CCN(CC(=O)O)CCN(CC(=O)O)CC2)C(N)=O)[C@@H](C)O)NC(=O)[C@H](Cc2ccc(O)cc2)NC(=O)[C@H](C2CC2)NC(=O)[C@H](CC(=O)O)NC(=O)[C@H](Cc2ccc(O)cc2)NC(=O)[C@H](CCCCN)NC(=O)CNC(=O)[C@H](C(C)C)NC1=O` [compound 123, Ac-hLeu-Y-C-V-G-K-Y-D-Cpg-Y-C-W-F-Thr-dLys(DOTA)-CONH2] (Ac-[hLeu]YCVGKYD[Gly(cPr)]YCWFT[dK](DOTA)-NH2; disulfide 3-11) registered a Kd under setting [1] of 1 to 10 nM.
Compound `CCCC[C@H](NC(C)=O)C(=O)N[C@@H](Cc1ccc(O)cc1)C(=O)N[C@H]1CSSC[C@@H](C(=O)N[C@@H](Cc2c[nH]c3ccccc23)C(=O)N[C@@H](CC2CCCCC2)C(=O)N[C@H](C(=O)N[C@H](CCCCNC(=O)CN2CCN(CC(=O)O)CCN(CC(=O)O)CCN(CC(=O)O)CC2)C(N)=O)[C@@H](C)O)NC(=O)[C@H](Cc2ccc(O)cc2)NC(=O)[C@H](C(C)C)NC(=O)[C@H](CC(=O)O)NC(=O)[C@H](Cc2ccc(O)cc2)NC(=O)[C@H](CCCCN)NC(=O)CNC(=O)[C@H](C(C)C)NC1=O` [compound 82, Ac-Nle-Y-C-V-G-K-Y-D-V-Y-C-W-ChA-Thr-dLys(DOTA)-CONH2] (Ac-[Nle]YCVGKYDVYCW[Cha]T[dK](DOTA)-NH2; disulfide 3-11) came in with a Kd under setting [1] of 100 to 300 nM.
For `CC(C)CC[C@H](NC(=O)CCOCCNC(=O)[C@H](CCC(=O)O)NC(=O)CN1CCN(CC(=O)O)CCN(CC(=O)O)CCN(CC(=O)O)CC1)C(=O)N[C@@H](Cc1ccc(O)cc1)C(=O)N[C@H]1CSSC[C@@H](C(=O)N[C@@H](Cc2c[nH]c3ccc(F)cc23)C(=O)N[C@@H](Cc2ccccc2)C(=O)N[C@H](C(N)=O)C(C)(C)O)NC(=O)[C@H](Cc2ccc(O)cc2)NC(=O)[C@H](C(C)C)NC(=O)[C@H](CC(=O)O)NC(=O)[C@H](CC2CCOCC2)NC(=O)[C@H](CCCCN)NC(=O)CNC(=O)[C@H](C(C)(C)C)NC1=O` [compound 394, DOTA-Glu-PEG1-hLeu-Y-C-Tbg-G-K-ThpA-D-V-Y-C-5FW-F-hydroxyVal-CONH2] ({DOTA}-E[PEG1][hLeu]YC[Tle]GK[Ala(4-THP)]DVYC[Trp(5-F)]F[Val(3-OH)]-NH2; disulfide 5-13), the Kd under setting [2] lay within 1 to 10 nM.
Consider `CC(=O)N[C@@H](CCC(C)C)C(=O)N[C@@H](Cc1ccc(O)cc1)C(=O)N[C@H]1CSSC[C@@H](C(=O)N[C@@H](Cc2c[nH]c3ccccc23)C(=O)N[C@@H](Cc2ccccc2)C(=O)N[C@H](C(=O)N[C@H](CCCCNC(=O)CN2CCN(CC(=O)O)CCN(CC(=O)O)CCN(CC(=O)O)CC2)C(N)=O)[C@@H](C)O)NC(=O)[C@H](Cc2ccc(O)cc2)NC(=O)[C@H](C(C)C)NC(=O)[C@H](CC(=O)O)NC(=O)[C@H](Cc2ccc(O)cc2)NC(=O)[C@H](CCCCN)NC(=O)CN(C)C(=O)[C@H](C(C)(C)C)NC1=O` [compound 75, Ac-hLeu-Y-C-Tbg-Sar-K-Y-D-V-Y-C-W-F-Thr-dLys(DOTA)-CONH2] (Ac-[hLeu]YC[Tle][Sar]KYDVYCWFT[dK](DOTA)-NH2; disulfide 3-11), for which, under setting [1], the Kd fell in the range of 1 to 10 nM.
Same read-out and setting: the figure for `CCCC[C@H](NC(C)=O)C(=O)N[C@@H](Cc1ccc(O)cc1)C(=O)N[C@H]1CSSC[C@@H](C(=O)N[C@@H](Cc2c[nH]c3ccccc23)C(=O)N[C@@H](Cc2ccccc2)C(=O)N[C@H](C(=O)N[C@H](CCCCNC(=O)CN2CCN(CC(=O)O)CCN(CC(=O)O)CCN(CC(=O)O)CC2)C(N)=O)[C@@H](C)O)NC(=O)[C@H](Cc2ccc(O)cc2)NC(=O)[C@H](CC)NC(=O)[C@H](CC(=O)O)NC(=O)[C@H](Cc2ccc(O)cc2)NC(=O)[C@H](CCCCN)NC(=O)CNC(=O)[C@H](C(C)C)NC1=O` [compound 96, Ac-Nle-Y-C-V-G-K-Y-D-Abu-Y-C-W-F-Thr-dLys(DOTA)-CONH2] (Ac-[Nle]YCVGKYD[Abu]YCWFT[dK](DOTA)-NH2; disulfide 3-11) is 10 to 100 nM; for `CC[C@H](C)[C@@H]1NC(=O)[C@@H](NC(=O)[C@H](Cc2ccc(O)cc2)NC(=O)[C@H](CCC(C)C)NC(C)=O)CSSC[C@@H](C(=O)N[C@@H](Cc2c[nH]c3ccc(F)cc23)C(=O)N[C@@H](Cc2ccccc2)C(=O)N2CCC[C@H]2C(N)=O)NC(=O)[C@H](Cc2ccc(O)cc2)NC(=O)[C@H](C(C)C)NC(=O)[C@H](CC(=O)O)NC(=O)[C@H](Cc2ccncc2)NC(=O)[C@H](CCCCNC(=O)CN2CCN(CC(=O)O)CCN(CC(=O)O)CCN(CC(=O)O)CC2)NC(=O)CNC1=O` [compound 260, Ac-hLeu-Y-C-Ile-G-Lys(DOTA)-4PyA-D-V-Y-C-5FW-F-Pro-CONH2] (Ac-[hLeu]YCIGK(DOTA)[4Pal]DVYC[Trp(5-F)]FP-NH2; disulfide 3-11) it is 1 to 10 nM; for `CC(=O)N[C@@H](CCC(C)C)C(=O)N[C@@H](Cc1ccc(O)cc1)C(=O)N[C@H]1CSSC[C@@H](C(=O)N[C@@H](Cc2c[nH]c3ccccc23)C(=O)N[C@@H](Cc2ccccc2)C(=O)N[C@H](C(N)=O)[C@@H](C)O)NC(=O)[C@H](Cc2ccc(O)cc2)NC(=O)[C@H](C(C)C)NC(=O)[C@H](CC(=O)O)NC(=O)[C@H](CCCCNC(=O)CN2CCN(CC(=O)O)CCN(CC(=O)O)CCN(CC(=O)O)CC2)NC(=O)[C@H](CCCCN)NC(=O)CNC(=O)[C@H](C(C)C)NC1=O` [compound 144, Ac-hLeu-Y-C-V-G-K-Lys(DOTA)-D-V-Y-C-W-F-Thr-CONH2] (Ac-[hLeu]YCVGKK(DOTA)DVYCWFT-NH2; disulfide 3-11) it is 10 to 100 nM.
As for `CC(=O)N[C@@H](CCC(C)C)C(=O)N[C@@H](Cc1ccc(O)cc1)C(=O)N[C@H]1CSSC[C@@H](C(=O)N[C@@H](CCc2ccccc2)C(=O)N[C@@H](Cc2ccccc2)C(=O)N[C@H](C(=O)N[C@H](CCCCNC(=O)CN2CCN(CC(=O)O)CCN(CC(=O)O)CCN(CC(=O)O)CC2)C(=O)O)[C@@H](C)O)NC(=O)[C@H](Cc2ccc(O)cc2)NC(=O)[C@H](C(C)C)NC(=O)[C@H](CC(=O)O)NC(=O)[C@H](CC2CCOCC2)NC(=O)[C@H](CCCCN)NC(=O)CNC(=O)[C@H](C(C)(C)C)NC1=O` [compound 359, Ac-hLeu-Y-C-Tbg-G-K-ThpA-D-V-Y-C-hF-F-Thr-dLys(DOTA)-COOH] (Ac-[hLeu]YC[Tle]GK[Ala(4-THP)]DVYC[hPhe]FT[dK](DOTA)-OH; disulfide 3-11), the dissociation constant Kd under setting [1] is 100 to 300 nM.
The same measure, in the same setting: the figure for `CC(=O)N[C@@H](CCC(C)C)C(=O)N[C@@H](Cc1ccc(O)cc1)C(=O)N[C@H]1CSSC[C@@H](C(=O)N[C@@H](Cc2c[nH]c3ccc(F)cc23)C(=O)N[C@@H](Cc2ccccc2)C(=O)N[C@H](C(=O)N[C@H](CCCCNC(=O)CN2CCN(CC(=O)O)CCN(CC(=O)O)CCN(CC(=O)O)CC2)C(N)=O)[C@@H](C)O)NC(=O)[C@H](Cc2cccnc2)NC(=O)[C@H](C(C)C)NC(=O)[C@H](CC(=O)O)NC(=O)[C@H](Cc2ccc(O)cc2)NC(=O)[C@H](CCCCN)NC(=O)CNC(=O)[C@H](C(C)C)NC1=O` [compound 170, Ac-hLeu-Y-C-V-G-K-Y-D-V-3PyA-C-5FW-F-Thr-dLys(DOTA)-CONH2] (Ac-[hLeu]YCVGKYDV[3Pal]C[Trp(5-F)]FT[dK](DOTA)-NH2; disulfide 3-11) is 1 to 10 nM; for `CCCC[C@@H](C(=O)N[C@H](C(=O)N[C@H](CCCCNC(=O)CN1CCN(CC(=O)O)CCN(CC(=O)O)CCN(CC(=O)O)CC1)C(N)=O)[C@@H](C)O)N(C)C(=O)[C@H](Cc1c[nH]c2ccc(F)cc12)NC(=O)[C@@H]1CSSC[C@H](NC(=O)[C@H](Cc2ccc(O)cc2)NC(=O)[C@H](CCC(C)C)NC(C)=O)C(=O)N[C@@H](C(C)C)C(=O)NCC(=O)N[C@@H](CCCCN)C(=O)N[C@@H](Cc2ccc(O)cc2)C(=O)N[C@@H](CC(=O)O)C(=O)N[C@@H](C(C)C)C(=O)N[C@@H](Cc2ccc(O)cc2)C(=O)N1` [compound 176, Ac-hLeu-Y-C-V-G-K-Y-D-V-Y-C-5FW-NMeNle-Thr-dLys(DOTA)-CONH2] (Ac-[hLeu]YCVGKYDVYC[Trp(5-F)][NMeNle]T[dK](DOTA)-NH2; disulfide 3-11) it is 1 to 10 nM.
Under setting [2], `CC(=O)N[C@@H](CCC(C)C)C(=O)N[C@@H](Cc1ccc(O)cc1)C(=O)N[C@H]1CSSC[C@@H](C(=O)N[C@@H](Cc2c[nH]c3ccc(F)cc23)C(=O)N[C@H](C(=O)N[C@H](C(=O)N[C@H](C)C(=O)O)C(C)(C)O)[C@@H](C)c2ccccc2)NC(=O)[C@H](Cc2ccc(O)cc2)NC(=O)[C@H](C(C)C)NC(=O)[C@H](CC(=O)O)NC(=O)[C@H](CC2CCN(C(=O)CCOCCOCCOCCOCCNC(=O)CN3CCN(CC(=O)O)CCN(CC(=O)O)CCN(CC(=O)O)CC3)CC2)NC(=O)[C@H](CC2CCN(C(C)=O)CC2)NC(=O)CNC(=O)[C@H](C(C)(C)C)NC1=O` [compound 513, Ac-hLeu-Y-C-Tbg-G-Pip(Ac)Ala-Pip(PEG4-DOTA)Ala-D-V-Y-C-5FW-[(2S, 3S)beta-Me-Phe]-hydroxyVal-dAla-COOH] (Ac-[hLeu]YC[Tle]G[X15][Ala(piperidin-4-yl)]([PEG4-DOTA])DVYC[Trp(5-F)][X1][Val(3-OH)][dA]-OH; disulfide 3-11) registered a Kd of less than 1 nM.
